Active and inactive are the calls of the source.

In general, IC50 refers to the concentration at which inhibition is half-maximal. As usually defined, the AC50 is the concentration giving half of the maximal activity seen. The term CC50 denotes the concentration giving 50% cytotoxicity.

For test [1], the target named is T1, Carboxy-terminal domain RNA polymerase II polypeptide A small phosphatase 1 (Homo sapiens, UniProt Q9GZU7).
T1 sequence (Q9GZU7 whole entry): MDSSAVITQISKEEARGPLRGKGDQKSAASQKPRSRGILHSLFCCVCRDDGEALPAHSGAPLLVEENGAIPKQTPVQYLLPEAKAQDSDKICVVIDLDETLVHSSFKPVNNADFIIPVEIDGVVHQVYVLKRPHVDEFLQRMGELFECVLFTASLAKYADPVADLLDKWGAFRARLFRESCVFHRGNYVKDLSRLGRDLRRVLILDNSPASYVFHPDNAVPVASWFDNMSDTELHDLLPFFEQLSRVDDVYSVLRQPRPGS
The test can be described thus: inhibitors of CTDSP1, concentration-response testing, biochemical assay, absorbance-based, actives from ultra-high-throughput screening (AID 540297). The format is functional.

Test [2] addresses T2, Long-chain-fatty-acid--AMP ligase FadD28 (Mycobacterium tuberculosis, UniProt P9WQ59).
T2 sequence (P9WQ59 whole entry): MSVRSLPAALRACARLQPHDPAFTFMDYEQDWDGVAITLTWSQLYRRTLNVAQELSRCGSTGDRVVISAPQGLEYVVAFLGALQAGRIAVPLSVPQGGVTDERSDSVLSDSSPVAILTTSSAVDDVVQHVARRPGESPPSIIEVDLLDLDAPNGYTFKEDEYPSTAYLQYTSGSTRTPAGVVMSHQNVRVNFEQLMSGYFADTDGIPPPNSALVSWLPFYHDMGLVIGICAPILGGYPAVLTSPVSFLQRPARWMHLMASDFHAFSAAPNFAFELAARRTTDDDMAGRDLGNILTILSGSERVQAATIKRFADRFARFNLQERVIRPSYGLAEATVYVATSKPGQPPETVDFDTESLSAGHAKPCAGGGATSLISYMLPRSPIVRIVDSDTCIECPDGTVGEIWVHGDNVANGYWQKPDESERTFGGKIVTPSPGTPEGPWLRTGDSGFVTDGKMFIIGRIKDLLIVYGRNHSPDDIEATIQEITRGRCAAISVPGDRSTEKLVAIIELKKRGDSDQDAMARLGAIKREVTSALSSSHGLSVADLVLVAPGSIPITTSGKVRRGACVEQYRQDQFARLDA
Nature of the test: Fluorescence polarization aasay to screen for inhibitors that compete for the binding of FadD28 to a bisubstrate Measured in Biochemical System Using Plate Reader - 2147-01_Inhibitor_Dose_CherryPick_Activity. The format is functional, Mycobacterium tuberculosis H37Rv.

The nature of test [3]: NIH-3T3 fibroblast cytotoxicity, dose response, cytotoxicity control, cell-based, fluorescence, Alamar Blue, secondary assay (AID 2327).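 Also: NIH-3T3 mouse fibroblasts cultured with fluconazole at 8 µg/mL.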 The format is functional.
Another test deals with Cytochrome P450 2C9 (Homo sapiens, UniProt P11712).
Another test concerns the target T3, Cytochrome P450 1A2 (Homo sapiens, UniProt P05177).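 Also: PubChem cytochrome P450 panel assay, CYP1A2 panel member.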
T3 sequence (P05177 whole entry): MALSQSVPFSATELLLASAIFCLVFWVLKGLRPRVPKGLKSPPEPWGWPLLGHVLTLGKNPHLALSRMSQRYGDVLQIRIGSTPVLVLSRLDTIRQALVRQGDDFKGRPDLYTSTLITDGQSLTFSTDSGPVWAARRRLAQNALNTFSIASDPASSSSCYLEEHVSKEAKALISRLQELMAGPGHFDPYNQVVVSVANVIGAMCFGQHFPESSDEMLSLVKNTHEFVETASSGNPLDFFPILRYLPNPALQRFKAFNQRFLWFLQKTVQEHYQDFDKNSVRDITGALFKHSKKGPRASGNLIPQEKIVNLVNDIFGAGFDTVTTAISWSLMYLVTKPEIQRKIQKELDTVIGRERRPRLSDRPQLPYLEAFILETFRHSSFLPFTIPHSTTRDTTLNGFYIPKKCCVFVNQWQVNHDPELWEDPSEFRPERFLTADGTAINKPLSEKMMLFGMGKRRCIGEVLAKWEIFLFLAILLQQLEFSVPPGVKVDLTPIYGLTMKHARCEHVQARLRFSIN

The target of test [4] is T4, Corticotropin-releasing factor receptor 2/Corticotropin-releasing factor-binding protein (Homo sapiens, UniProt P24387+Q13324).
T4 sequence (Q13324 whole entry): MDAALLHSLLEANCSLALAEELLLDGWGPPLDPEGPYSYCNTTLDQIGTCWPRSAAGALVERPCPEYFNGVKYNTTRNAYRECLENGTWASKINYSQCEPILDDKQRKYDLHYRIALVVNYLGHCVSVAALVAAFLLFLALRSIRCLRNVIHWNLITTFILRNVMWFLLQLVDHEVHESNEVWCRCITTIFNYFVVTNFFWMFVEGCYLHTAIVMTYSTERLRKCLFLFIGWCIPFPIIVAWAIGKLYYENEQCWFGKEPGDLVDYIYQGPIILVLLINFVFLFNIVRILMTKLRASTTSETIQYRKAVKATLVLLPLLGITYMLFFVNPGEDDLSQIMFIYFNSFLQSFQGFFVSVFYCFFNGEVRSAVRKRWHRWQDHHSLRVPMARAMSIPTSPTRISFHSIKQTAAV
T4 sequence (P24387 whole entry): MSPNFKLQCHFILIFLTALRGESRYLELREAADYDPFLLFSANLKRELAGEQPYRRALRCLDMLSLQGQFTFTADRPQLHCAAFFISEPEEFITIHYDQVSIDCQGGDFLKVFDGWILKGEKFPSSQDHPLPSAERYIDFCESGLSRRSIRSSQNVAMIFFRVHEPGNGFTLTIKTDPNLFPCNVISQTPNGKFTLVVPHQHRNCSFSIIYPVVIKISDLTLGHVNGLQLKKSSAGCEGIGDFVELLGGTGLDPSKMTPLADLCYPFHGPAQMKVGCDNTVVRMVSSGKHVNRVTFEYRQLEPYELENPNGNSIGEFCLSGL
The test can be described thus: activators of CRF receptor 2 with binding protein – uHTS hits, confirmation (AID 602473). The test is classed as functional. Conditions: read-out: EC50_Mean.

A short description of test [5]: cytotoxicity toward DRD oncogenic fibroblasts, dose response, cell-based, non-viral oncogenic, luminescence (AID 1934). The format is functional. The following applies: Homo sapiens.
Test [6] has as its system BJ. Nature of the test: cytotoxicity toward BJ-TERT-LT-ST fibroblasts, dose response, cell-based, RAS-independent, luminescence (AID 1935).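 Also: BJ fibroblasts immortalized with TERT plus LT and ST oncogenes.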 The format is functional. Conditions: Homo sapiens.
The target in another test is Genome polyprotein (dengue virus type 2, UniProt P29990). Nature of the test: Dengue-2 NS5 methyltransferase inhibitors, primary screen, biochemical, confirmation dose response (AID 588689). The test is classed as functional.
The nature of test [7]: THP-1 cell cytotoxicity, dose response, cytotoxicity control for non-replicating M. tuberculosis project (AID 489025). The format is functional.
Test [8] concerns BJ. The test can be described thus: cytotoxicity toward BJ-TERT fibroblasts, dose response, cell-based, RAS-independent, luminescence (AID 1933). The format is functional. The following applies: Homo sapiens.
The nature of a further test: cells. The test is classed as functional.
Test [9] deals with BJ. The test can be described thus: cells. Conditions: Homo sapiens. The format is functional, cell-based.
The target in the next test is Kallikrein-7 (Homo sapiens, UniProt P49862). The test can be described thus: Fluorescence Intensity-based biochemical primary high throughput dose response assay to identify activators of kallikrein-7 (K7) zymogen.
Test [10] concerns the target T5, Sentrin-specific protease 8 (Homo sapiens, UniProt Q96LD8).
T5 sequence (Q96LD8 whole entry): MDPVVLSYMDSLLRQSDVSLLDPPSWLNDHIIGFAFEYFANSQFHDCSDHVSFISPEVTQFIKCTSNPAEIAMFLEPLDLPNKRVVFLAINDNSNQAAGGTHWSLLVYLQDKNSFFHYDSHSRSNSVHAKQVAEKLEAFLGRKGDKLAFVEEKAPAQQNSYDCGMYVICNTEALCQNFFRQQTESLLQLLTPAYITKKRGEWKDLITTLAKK
The format is functional.

The nature of test [11]: Luminescence Cell-Based Dose Retest to Confirm Inhibitors of Cancer Stem Cells. [Related pubchem assays (depositor defined):AID2717, AID2721]. The test is classed as functional, Homo sapiens. Conditions: Homo sapiens.

Sequence of Genome polyprotein (P29990 2492-3391 limits assumed): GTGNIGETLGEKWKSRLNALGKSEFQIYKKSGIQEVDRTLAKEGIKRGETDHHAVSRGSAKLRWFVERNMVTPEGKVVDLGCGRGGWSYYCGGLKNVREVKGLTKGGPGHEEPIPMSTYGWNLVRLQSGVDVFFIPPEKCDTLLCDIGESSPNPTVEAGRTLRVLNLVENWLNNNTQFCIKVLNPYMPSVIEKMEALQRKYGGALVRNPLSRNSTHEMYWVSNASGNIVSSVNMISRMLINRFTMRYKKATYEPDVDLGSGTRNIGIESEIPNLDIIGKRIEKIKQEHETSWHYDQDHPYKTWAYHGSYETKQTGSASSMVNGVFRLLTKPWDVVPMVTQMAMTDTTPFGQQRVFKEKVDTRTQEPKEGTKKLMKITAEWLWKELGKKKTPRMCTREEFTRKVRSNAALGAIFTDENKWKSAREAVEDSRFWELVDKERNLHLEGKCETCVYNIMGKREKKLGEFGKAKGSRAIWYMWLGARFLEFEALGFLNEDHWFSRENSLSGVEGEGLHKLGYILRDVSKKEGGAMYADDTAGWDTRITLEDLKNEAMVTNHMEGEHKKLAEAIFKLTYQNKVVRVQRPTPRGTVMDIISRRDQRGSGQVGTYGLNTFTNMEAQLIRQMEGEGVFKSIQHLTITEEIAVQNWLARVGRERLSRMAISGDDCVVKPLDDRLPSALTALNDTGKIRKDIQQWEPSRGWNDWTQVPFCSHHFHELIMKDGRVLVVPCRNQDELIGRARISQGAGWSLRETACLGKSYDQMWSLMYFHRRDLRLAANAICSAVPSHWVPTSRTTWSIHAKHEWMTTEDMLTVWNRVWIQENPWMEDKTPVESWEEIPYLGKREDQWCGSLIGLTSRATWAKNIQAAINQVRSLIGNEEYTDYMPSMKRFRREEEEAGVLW
Sequence of Cytochrome P450 2C9 (P11712 whole entry): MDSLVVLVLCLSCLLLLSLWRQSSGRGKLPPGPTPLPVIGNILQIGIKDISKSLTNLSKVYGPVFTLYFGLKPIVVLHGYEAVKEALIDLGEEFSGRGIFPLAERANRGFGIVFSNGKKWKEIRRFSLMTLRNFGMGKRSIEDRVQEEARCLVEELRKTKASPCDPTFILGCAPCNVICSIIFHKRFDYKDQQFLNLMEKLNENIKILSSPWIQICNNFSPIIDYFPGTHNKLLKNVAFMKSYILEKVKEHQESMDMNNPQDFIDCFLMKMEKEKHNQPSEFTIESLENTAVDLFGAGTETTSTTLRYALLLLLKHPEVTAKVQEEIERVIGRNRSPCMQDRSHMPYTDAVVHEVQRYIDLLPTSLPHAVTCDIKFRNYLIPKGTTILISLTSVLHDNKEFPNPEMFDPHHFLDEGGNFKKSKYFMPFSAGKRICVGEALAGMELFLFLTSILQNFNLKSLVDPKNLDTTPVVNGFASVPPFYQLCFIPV
Sequence of Kallikrein-7 (P49862 whole entry): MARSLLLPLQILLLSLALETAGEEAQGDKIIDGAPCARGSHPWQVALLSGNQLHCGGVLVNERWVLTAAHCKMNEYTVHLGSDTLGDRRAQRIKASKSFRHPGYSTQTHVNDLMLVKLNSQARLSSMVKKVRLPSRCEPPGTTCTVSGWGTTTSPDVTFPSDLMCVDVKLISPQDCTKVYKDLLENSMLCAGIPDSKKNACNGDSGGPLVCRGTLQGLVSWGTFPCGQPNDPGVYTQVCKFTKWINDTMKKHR

Turning to `C=C(C)C(=O)N1CC2(CC(c3cccc(NC(=O)/C=C\C=C/C)c3)=NO2)C[C@H]1C(N)=O` (stereo partly specified), the IC50 in [1] is 9.08 µM (active).

Regarding `CC(C)(C)NS(=O)(=O)c1ccc(NC(=O)CS(=O)(=O)Cc2ccccc2)cc1`, the AC50 in [2] is > 100 µM (inactive).

Consider `CC(C)=C1C(=O)NN(c2ccc(F)c(Cl)c2)C1=O`, for which the EC50 in test [3] was > 160 µM (inactive). The figures for the AC50 (at Cytochrome P450 2C9; at Cytochrome P450 1A2; in test [2]) were 20 µM (inconclusive), 31.6 µM (inconclusive) and > 100 µM (inactive), respectively.

For `O=C(O)c1cc(Cl)ccc1-c1ccc(/C=C/c2cc(C(F)(F)F)nc(O)n2)o1`, the EC50 in [4] was 6.29 µM (active). Moreover, the AC50 in test [2] is > 100 µM (inactive).

`NS(=O)(=O)c1ccc(NC(=O)C2Cc3ccccc3CN2C(=O)c2ccco2)cc1` (stereo unspecified): the IC50 in test [1] is 6.06 µM (active).

As to `O=C1N=C(Nc2cccnc2)S/C1=C/c1ccc(F)cc1`, the IC50 in test [1] was 18.4 µM (active).

Consider `O=C(NC1CC1)C1CCN(S(=O)(=O)c2cc([N+](=O)[O-])ccc2Cl)CC1`, for which the IC50 in test [1] is 2.49 µM (active).

As for `CN1C(=O)NC(=O)/C(=C/c2ccc([N+](=O)[O-])s2)C1=O`, the EC50 in test [5] was > 150 µM (not active); in the test with BJ [6], > 150 µM (not active); in the test on BJ [8] it was 11.2 µM (active); with BJ [9], > 150 µM (not active). In addition, the IC50 was 17.4 µM (active) at Genome polyprotein and 23.2 µM (active) in “cells”. Also, the CC50 in test [7] was 33.8 µM (active).

On to `O=C(NNS(=O)(=O)c1ccc(F)cc1)c1cc(Cl)ccc1O`, for which the AC50 in test [2] was > 100 µM (inactive).

As for `COCCn1c(=S)[nH]c2sc3c(c2c1=O)CCC(C)C3` (stereo unspecified), in [2], the AC50 was 53.8 µM (active).

For the molecule `Cc1cc(C=O)c(C)n1-c1cccc(C(=O)O)c1`, the 50% inhibitory concentration (IC50) in [1] was 6.32 µM (active).

`CC(C)OCCOc1ccc2oc(-c3ccco3)cc(=O)c2c1`: on Kallikrein-7, the EC50 is > 7.72 µM (active). Besides, the IC50 in [1] was 21.7 µM (active).

Take `CCOC(=O)CC1(C)OCC(C[N+]2(C)CCCCC2)O1` (stereo unspecified): in [1], the IC50 is 5.57 µM (active).

With `Cc1nc2ccccc2n1/N=C/c1ccc([N+](=O)[O-])o1`, in [10], the IC50 is 38.4 µM (active). Also, the AC50 in [11] was 10.9 µM (active).
